Legend:
male Wistar rats [1] = assay: Gastric ulcer index after oral dosing; format: in vivo, rat; conditions: for Ulcer Indices, Mean: oral gavage, naproxen 250 mg/kg or molar equivalent (ROF 250 mg/kg), 6 h after dosing, mean aggregate gastric ulcer length; for Ulcerogenicity (in words): oral, 6 h
Description: (§1) Table 1 is a summary of the protocol for a study which was conducted in male Wistar rats weighing 275-300 grams. The animals were allowed to acclimatize for at least five days prior to the commencement of the study. The study protocol was approved by the local animal ethics committee.
(§2) The animals were fasted overnight prior to test substance administration. The test substance was administered orally by gavage on the morning of the study day. All test animals had blood collected during the test period in both EDTA (ethylenediaminetetraacetic acid) tubes and SST (Serum Separator Tubes) at 1, 3 and 6 hours after dosing. Blood was collected into EDTA tubes only at 1 and 3 hours by tail tip amputation. Volume of blood collected was between 0.5 and 1 mL at each of these collections. The final collection was by puncture of the abdominal vena cava under isoflurane general anesthesia. Final blood collection was targeted as follows: 1st EDTA #1—1.5 mL; 2nd SST—1.5 mL; 3rd EDTA #2—as much as possible.
Each animal from all groups underwent a full necropsy under the supervision of a board certified veterinary pathologist. The stomach of each rat was cut along the greater curvature, contents removed into a polypropylene (Falcon) tube, the mucosa rinsed with saline and any obvious ulcers or erosions were measured along the longest axis. This measurement was recorded for each ulcer or erosion observed in each stomach. The falcon tubes and their contents were frozen at −80° C. and shipped to Novokin on dry ice for analysis.
The aggregate length of all gastric ulcers found in a given animal was calculated. The mean aggregate ulcer length across animals in a group was calculated. This mean value was reported as the ulcer index for that group.
The ulcer index of each modified drug was compared with the ulcer index of its associated parent drug and the controls using analysis of variance and Duncan's multiple range test for pairwise comparisons. Statistical analysis was done using SAS® (SAS Institute Inc., Cary, N.C.).

[2] = Plasma NAPROXEN AUC0-6h after oral dosing; format: in vivo, rat; conditions: male Wistar rats
Description: as §1

[3] = Serum nitrate concentration (NO release) after oral dosing; format: in vivo, rat; conditions: male Wistar rats, oral gavage, at 6 hours
Description: as §1, §2
EDTA samples were centrifuged, and the plasma portion was collected and frozen at −80° C. SST samples were incubated at 37° C. for approximately 45 minutes, centrifuged, and the serum was collected and frozen at −80° C. until analysis.

male Wistar rats [4] = assay: Urine alanine aminopeptidase to creatinine ratio (proximal tubular kidney damage); format: in vivo, rat; conditions: for AAP/Cr (urine alanine aminopeptidase to creatinine), Mean: oral gavage, urine collected for 6 hours
From the text: Myocardial infarction and ischemic events in high risk patients led one of the most popular COX-2 inhibitors to its demise (Bresalier et al., 2005). Non-selective NSAIDS may also cause similar problems due to their ability to inhibit COX-2. […] Adenosine diphosphate (ADP) generation is an indicator of myocardial infarction which has no connection with the arachidonic acid cascade (Borna et al., 2005). […] Long term NSAID use has been linked to kidney damage and hypertension (Zafirovska et al., 1993). […] This was associated with an increase in the urine the ratio of alanine-amino-peptidase (AAP) and creatinine.
as §1
All test animals, housed in metabolic cages, had urine collected over wet ice for 6 hours after dosing. Aliquots of the urine from each animal were collected to determine creatinine concentration. The remainder of the urine was centrifuged at 1000 g for 10 minutes. The supernatant was collected and mixed with analytical grade ethylene glycol at a rate of 0.4 mL ethylene glycol per 1 mL urine supernatant. The ethylene glycol/urine mixture was stored at −80° C. until analysis.

[5] = Hydrolysis in rat intestinal microsomes; format: in vitro ADME; conditions: for intestinal microsomal activity: model input
From the text: (§3) The physiologically based pharmacokinetic/pharmacodynamic model of the present invention contains a series of compartments that describe the time course of a nonsteroidal anti-inflammatory prodrug, its active metabolites and nitric oxide release in intestine, liver, kidneys, blood/plasma and heart after prodrug administration. The time course of the prodrug, its active metabolites and nitric oxide release can be simulated using a series of in vitro and in silico inputs. The stability of each component in the gastrointestinal lumen is estimated using data collected from artificial gastric and intestinal juice. Intestinal metabolism is estimated using intestinal microsomes and absorption rate is estimated using permeability data collected from a cell monolayer such as Caco-2. Hepatic elimination is estimated using liver microsomes and stability in plasma is calculated using degradation of each component in the media. Plasma protein binding can either be measured using a standardized in vitro method or it can be estimated using an in silico method. The distribution of each component in various parts of the body is estimated using an in silico method. The rate of nitric oxide release is estimated using an in vitro endothelial cell model. The time course of prodrug, its active metabolites and nitric oxide can be simulated in human and animal using this physiologically based pharmacokinetic/pharmacodynamic model provided that the corresponding in vitro and in silico data are used as inputs.
(§4) Representative in vitro tests or in silico estimates include: (a) pKa estimation or measurement; (b) Log P measurement or in silico estimation; (c) Solubility in various physiological fluids; (d) Permeability. Caco-2 and/or NOVOKIN's proprietary animal and human cell lines can be used to obtain this parameter; (e) Metabolic rate in the intestine and liver. Human or animal intestinal microsomes, S9 fraction, and cytosol can be used for this purpose. Human or animal hepatocytes, liver microsomes, S9 fraction, and cytosol can also be used; (f) Hydrolysis in human or animal plasma; (g) Serum or plasma protein binding. It can be measured in vitro or estimated in silico; (h) The rate of NO release; (i) Existing pharmacokinetic and pharmacodynamic data of NSAID or a biocompatible agent; (j) Existing NO release rate of known diazeniumdiolate if applicable; (k) Stability in gastric and intestinal environment; and (l) In silico volume of distribution estimation.
(§5) Whenever in vitro estimate is attainable, the in vitro results will be used, for example, plasma protein binding. Methods reported by Bowalgaha & Miners (2001), Martignoni et al. (2006), Tong et al. (2001) and Thulesen et al. (1999) were used for in vitro and in vivo scale-up for clearance in the intestine, absorption rate constant and hepatic clearance. The simulation begins with no material in all compartments except for the initial bolus in one compartment (typically the stomach compartment). The simulation then estimates the changing distribution of the material with time.

[6] = Hydrolysis in rat liver microsomes; format: in vitro ADME; conditions: for liver microsomal activity: model input
From the text: as §3, §4, §5

[7] = Stability in gastric environment (gastric decay rate); format: in vitro ADME
From the text: as §3, §4

[8] = Stability in intestinal lumen (decay rate); format: in vitro ADME
From the text: as §3, §4

[9] = Hydrolysis in human plasma; format: in vitro ADME
From the text: as §3, with “The time course of prodrug, its active metabolites and nitric oxide can be simulated in human and animal using this physiologically based pharmacokinetic/pharmacodynamic model provided that the corresponding in vitro and in silico data are used as inputs.” left out

[10] = in vitro; Knaus et al., 2005; cited from earlier work

| AUC0-6h of NAPROXEN compared with parent drug (in words) [2] | plasma decay rate constant [9] [min⁻¹] | Structure (SMILES) | Ulcer Indices, Mean (male Wistar rats [1]) | Ulcerogenicity (in words) (male Wistar rats [1]) | Serum Nitrate Concentrations, Mean [3] | Urine AAP/creatinine ratio change (in words) (male Wistar rats [4]) | AAP/Cr (urine alanine aminopeptidase to creatinine), Mean (male Wistar rats [4]) | intestinal microsomal activity [5] [mL/min/organ] | liver microsomal activity [6] [mL/min/organ] | gastric decay rate constant ([7]; Human) | gastric decay rate constant ([7]; Rat) | intestinal lumen decay rate constant ([8]; Human) [min⁻¹] | intestinal lumen decay rate constant ([8]; Rat) [min⁻¹] | intestinal molar percent conversion to Naproxen [5] [%] | liver molar percent conversion to Naproxen [6] [%] | NO generating capacity relative to AZD 3582 [10] [times] |
| --- | --- | --- | --- | --- | --- | --- | --- | --- | --- | --- | --- | --- | --- | --- | --- | --- |
| much lower than for NAPROXEN parent drug | 1.0 | COc1ccc2cc([C@H](C)C(=O)OCCCCO[N+](=O)[O-])ccc2c1 [AZD 3582] | 3.444 | severely ulcerogenic | 460.667 | did cause an increase | 403.400 | 0.09 | 1029 | 0 /mint | 0 /mint | 0 | 0 |  |  |  |
|  |  | COc1ccc2cc(C(C)C(=O)OCON=[N+]([O-])N3CCCC3)ccc2c1 (centres unmarked) [PYRO-NO-NAP, pyrrolidino-diazeniumdiolate-naproxen] | 1.450 | not significantly different from vehicle | 389.000 |  | 195.569 | 1 | 1920 | 0 /mint | 0 /mint | 0.025 | 0.025 | 10 | 40 | 13 |
